Reference: patent publication US20230365592A1 (Agios Pharmaceuticals, Inc., priority 2022, published 2023)

target: T1, human PAH with the R408W mutation (Homo sapiens, UniProt P00439, R408W); assay: Cell Based Phenylalanine Flux Assay; settings: A375 cells expressing human R408W PAH; 24 hrs compound incubation; 13C-Tyrosine by LC-MS; average where tested multiple times; read-out: AC50;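 also: after compound treatment, cells received sepiapterin plus isotope-labelled Phenylalanine for 4 hours, then labelled Tyrosine in the medium was quantified, 10-point 2-fold dilution series run in duplicate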
T1 construct: expressed in transfected cells
T1 sequence (P00439 1-452 R408W): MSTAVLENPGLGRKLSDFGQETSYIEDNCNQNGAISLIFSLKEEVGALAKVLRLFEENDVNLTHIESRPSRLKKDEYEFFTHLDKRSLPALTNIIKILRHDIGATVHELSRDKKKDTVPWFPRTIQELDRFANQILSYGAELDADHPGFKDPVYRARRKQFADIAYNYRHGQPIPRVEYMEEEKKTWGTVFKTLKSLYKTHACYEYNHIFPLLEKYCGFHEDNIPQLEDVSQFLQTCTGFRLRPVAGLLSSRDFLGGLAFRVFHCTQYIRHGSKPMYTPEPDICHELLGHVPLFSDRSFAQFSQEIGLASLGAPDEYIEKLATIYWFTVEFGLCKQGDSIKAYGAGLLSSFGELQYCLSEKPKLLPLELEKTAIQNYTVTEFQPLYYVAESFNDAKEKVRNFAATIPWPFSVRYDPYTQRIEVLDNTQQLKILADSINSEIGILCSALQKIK

Row | SMILES | AC50
1 | Cc1cccc2cc([C@H]3c4nc[nH]c4CCN3C(=O)c3nnc(-c4cnccn4)o3)nn12 [Example 1338, (R)-(4-(7-methylpyrazolo[1,5-a]pyridin-2-yl)-6,7-dihydro-1H-imidazo[4,5-c]pyridin-5(4H)-yl)(5-(pyrazin-2-yl)-1,3,4-oxadiazol-2-yl)methanone] | > 5000 nM
2 | Cc1cccc2cc([C@@H]3c4nc[nH]c4CCN3C(=O)c3nnc(-c4cnccn4)o3)nn12 [Example 1339, (S)-(4-(7-methylpyrazolo[1,5-a]pyridin-2-yl)-6,7-dihydro-1H-imidazo[4,5-c]pyridin-5(4H)-yl)(5-(pyrazin-2-yl)-1,3,4-oxadiazol-2-yl)methanone] | < 500 nM
3 | CC(C)(F)c1nnc(C(=O)N2CCc3[nH]cnc3[C@@H]2c2cc3c(C(F)F)cccn3n2)o1 [Example 1351, (R)-(4-(4-(difluoromethyl)pyrazolo[1,5-a]pyridin-2-yl)-6,7-dihydro-1H-imidazo[4,5-c]pyridin-5(4H)-yl)(5-(2-fluoropropan-2-yl)-1,3,4-oxadiazol-2-yl)methanone] | > 5000 nM
4 | Cn1ccc(-c2nnc(C(=O)N3CCc4[nH]cnc4[C@H]3c3cc4c(C(F)F)cccn4n3)o2)n1 [Example 1352, (S)-(4-(4-(difluoromethyl)pyrazolo[1,5-a]pyridin-2-yl)-6,7-dihydro-1H-imidazo[4,5-c]pyridin-5(4H)-yl)(5-(1-methyl-1H-pyrazol-3-yl)-1,3,4-oxadiazol-2-yl)methanone] | < 500 nM
5 | CC1(c2nnc(C(=O)N3CCc4[nH]cnc4[C@@H]3c3cc4cccc(C(F)(F)F)n4n3)o2)CC1 [Example 1355, (R)-(5-(1-methylcyclopropyl)-1,3,4-oxadiazol-2-yl)(4-(7-(trifluoromethyl)pyrazolo[1,5-a]pyridin-2-yl)-6,7-dihydro-1H-imidazo[4,5-c]pyridin-5(4H)-yl)methanone] | 1000 to 5000 nM
6 | Cc1ncccc1-c1nnc(C(=O)N2CCc3[nH]cnc3[C@@H]2c2cc3cccc(C)n3n2)o1 [Example 1359, (R)-(4-(7-methylpyrazolo[1,5-a]pyridin-2-yl)-6,7-dihydro-1H-imidazo[4,5-c]pyridin-5(4H)-yl)(5-(2-methylpyridin-3-yl)-1,3,4-oxadiazol-2-yl)methanone] | 1000 to 5000 nM
7 | O=C(c1nnc(-c2cnccn2)o1)N1CCc2[nH]cnc2[C@@H]1c1cc2cccc(C(F)(F)F)n2n1 [Example 1360, (R)-(5-(pyrazin-2-yl)-1,3,4-oxadiazol-2-yl)(4-(7-(trifluoromethyl)pyrazolo[1,5-a]pyridin-2-yl)-6,7-dihydro-1H-imidazo[4,5-c]pyridin-5(4H)-yl)methanone] | > 5000 nM
8 | O=C(c1nnc(-c2cnccn2)o1)N1CCc2[nH]cnc2[C@@H]1c1cc2ccccn2n1 [Example 1363, (R)-(5-(pyrazin-2-yl)-1,3,4-oxadiazol-2-yl)(4-(pyrazolo[1,5-a]pyridin-2-yl)-6,7-dihydro-1H-imidazo[4,5-c]pyridin-5(4H)-yl)methanone] | > 5000 nM
9 | Cc1c(-c2nnc(C(=O)N3CCc4[nH]cnc4[C@H]3c3cc4cccc(C(F)F)n4n3)o2)cnn1C [Example 1366, (S)-(4-(7-(difluoromethyl)pyrazolo[1,5-a]pyridin-2-yl)-6,7-dihydro-1H-imidazo[4,5-c]pyridin-5(4H)-yl)(5-(1,5-dimethyl-1H-pyrazol-4-yl)-1,3,4-oxadiazol-2-yl)methanone] | < 500 nM
10 | Cn1nc(C(F)F)cc1C(=O)N1CCc2[nH]cnc2[C@H]1c1cc2c(C(F)(F)F)cccn2n1 [Example 1370, (S)-(3-(difluoromethyl)-1-methyl-1H-pyrazol-5-yl)(4-(4-(trifluoromethyl)pyrazolo[1,5-a]pyridin-2-yl)-6,7-dihydro-1H-imidazo[4,5-c]pyridin-5(4H)-yl)methanone] | < 500 nM

More lines, now with the values ahead:

Row | AC50 | SMILES
11 | 500 to 1000 nM | Cc1ncccc1-c1nnc(C(=O)N2CCc3[nH]cnc3[C@H]2c2cc3cccc(C(F)(F)F)n3n2)o1 [Example 1342, (S)-(5-(2-methylpyridin-3-yl)-1,3,4-oxadiazol-2-yl)(4-(7-(trifluoromethyl)pyrazolo[1,5-a]pyridin-2-yl)-6,7-dihydro-1H-imidazo[4,5-c]pyridin-5(4H)-yl)methanone]
12 | 1000 to 5000 nM | Cc1ncccc1-c1nnc(C(=O)N2CCc3[nH]cnc3[C@@H]2c2cc3cccc(C(F)(F)F)n3n2)o1 [Example 1343, (R)-(5-(2-methylpyridin-3-yl)-1,3,4-oxadiazol-2-yl)(4-(7-(trifluoromethyl)pyrazolo[1,5-a]pyridin-2-yl)-6,7-dihydro-1H-imidazo[4,5-c]pyridin-5(4H)-yl)methanone]
13 | 1000 to 5000 nM | COc1ccc(-c2nnc(C(=O)N3CCc4[nH]cnc4[C@H]3c3cc4cccc(C(F)(F)F)n4n3)o2)cn1 [Example 1344, (S)-(5-(6-methoxypyridin-3-yl)-1,3,4-oxadiazol-2-yl)(4-(7-(trifluoromethyl)pyrazolo[1,5-a]pyridin-2-yl)-6,7-dihydro-1H-imidazo[4,5-c]pyridin-5(4H)-yl)methanone]
14 | 1000 to 5000 nM | COc1ccc(-c2nnc(C(=O)N3CCc4[nH]cnc4[C@@H]3c3cc4cccc(C(F)(F)F)n4n3)o2)cn1 [Example 1345, (R)-(5-(6-methoxypyridin-3-yl)-1,3,4-oxadiazol-2-yl)(4-(7-(trifluoromethyl)pyrazolo[1,5-a]pyridin-2-yl)-6,7-dihydro-1H-imidazo[4,5-c]pyridin-5(4H)-yl)methanone]
15 | 1000 to 5000 nM | O=C(c1nnc(-c2cccnc2)o1)N1CCc2[nH]cnc2[C@@H]1c1cc2ccccn2n1 [Example 1347, (R)-(4-(pyrazolo[1,5-a]pyridin-2-yl)-6,7-dihydro-1H-imidazo[4,5-c]pyridin-5(4H)-yl)(5-(pyridin-3-yl)-1,3,4-oxadiazol-2-yl)methanone]
16 | < 500 nM | Cc1c(-c2nnc(C(=O)N3CCc4[nH]cnc4[C@H]3c3cc4c(C(F)F)cccn4n3)o2)cnn1C [Example 1348, (S)-(4-(4-(difluoromethyl)pyrazolo[1,5-a]pyridin-2-yl)-6,7-dihydro-1H-imidazo[4,5-c]pyridin-5(4H)-yl)(5-(1,5-dimethyl-1H-pyrazol-4-yl)-1,3,4-oxadiazol-2-yl)methanone]
17 | 500 to 1000 nM | CC1(c2nnc(C(=O)N3CCc4[nH]cnc4[C@H]3c3cc4cccc(C(F)(F)F)n4n3)o2)CC1 [Example 1354, (S)-(5-(1-methylcyclopropyl)-1,3,4-oxadiazol-2-yl)(4-(7-(trifluoromethyl)pyrazolo[1,5-a]pyridin-2-yl)-6,7-dihydro-1H-imidazo[4,5-c]pyridin-5(4H)-yl)methanone]
18 | < 500 nM | Cc1ncccc1-c1nnc(C(=O)N2CCc3[nH]cnc3[C@H]2c2cc3cccc(C)n3n2)o1 [Example 1358, (S)-(4-(7-methylpyrazolo[1,5-a]pyridin-2-yl)-6,7-dihydro-1H-imidazo[4,5-c]pyridin-5(4H)-yl)(5-(2-methylpyridin-3-yl)-1,3,4-oxadiazol-2-yl)methanone]
19 | 1000 to 5000 nM | Cn1nc(C(F)F)cc1C(=O)N1CCc2[nH]cnc2[C@@H]1c1cc2c(Cl)cccn2n1 [Example 1369, (R)-(4-(4-chloropyrazolo[1,5-a]pyridin-2-yl)-6,7-dihydro-1H-imidazo(4,5-c]pyridin-5(4H)-yl)(3-(difluoromethyl)-1-methyl-1H-pyrazol-5-yl)methanone]
